Assay results published in patent US11040958B2, “Triazole antimicrobial derivative, pharmaceutical composition and use thereof” (priority 2017, dated 2021).

Columns and labels:
[1] = Solid stability test (25°C, RH 60%, 30 days); assay type: physicochemical; conditions: 25°C±2°C, relative humidity 60%±2%
Protocol: Experimental conditions: 25° C.±2° C., relative humidity 60%±2%
Experimental instrument: Agilent 1260 HPLC; chamber for stability test
Experimental method: each compound of the present disclosure was packaged (the inner packaging material was a penicillin bottle; the outer packaging material was a double-layer aluminum foil bag, and a desiccant was added inside and outside the package), placed in the chamber for stability test, at a temperature of 25° C.±2° C. and a relative humidity of 60%±2%. The degradation situation of the compounds for 30 days was examined. The contents of total impurities before and after 30 days of each compound were compared and the results were as follows: […]

[2] = Solubility test in deionized water (HPLC, external calibration); assay type: physicochemical; conditions: deionized water, 25±2°C
Protocol: Experimental condition: 25±2° C.
Dissolving medium: deionized water
Experimental method: 1 mg voriconazole and appropriate amount of each compound were weighed, placed in 1 ml deionized water separately, shaken vigorously for 30 s every 5 mins for 30 mins.

[3] = In vitro metabolic stability in rat plasma; assay type: in vitro ADME; conditions: 37°C, compound 10 μM
Protocol: The two reaction systems were set up three samples in parallel, while each sample was taken in an amount of 100 μL at 1 min, 2 mins, 5 mins, 15 mins, and 30 mins after the reaction, added to the centrifuge tube containing 400 μL of 0° C. pre-cooled internal standard working fluid and terminated the reaction. The sample was mixed by vortex for 1 min, centrifuged at 10,000×g for 10 mins in a 4° C. pre-cooled high-speed centrifuge. The supernatant was taken for HPLC detection. […] Concentration of mother liquor of compounds: 1 mM […]

[4] = Pharmacokinetics after single gastrointestinal (gavage) administration in rats (plasma voriconazole); assay type: in vivo; conditions: SD rats, 2.5 mg/kg (calculated as voriconazole)
Protocol: Dosing volume for administration: 10 ml/kg
Solvent medium for administration: except for the positive voriconazole group using CMC-Na, the other groups using normal saline
Route of administration: gavage

[5] = test system: Candida albicans ATCC10231; assay: Systemic fungal infection in mice, administration by gavage, survival; assay type: in vivo; conditions: ICR mice, 5 mg/kg (calculated as voriconazole) once daily for 5 days
Protocol: ICR mice, weighing 18-22 g, male, provided by the Hubei Experimental Animal Center.
The standard strain Candida albicans was purchased from the American Type Culture Collection, and the strain number was ATCC10231.
Before the experiment, a small amount of Candida albicans was picked from the SDA medium preserved at 4° C. by inoculation circle, inoculated into 1 ml of YPD culture medium, and cultured at 30° C. while being shaken at 200 rpm for 16 hours to make the fungus in the late stage of exponential growth. Blood cell counting plate was used to count, and the concentration of the broth was adjusted to 1*10^3−5*10^3 CFU/ml with RPMI1640 medium. The Candida albicans monoclone on the SDA plate was picked, inoculated into 1 ml YPD medium, cultured at 35° C., 200 rpm for 16 hours to the late exponential growth phase, 1% of which was then inoculated in fresh medium for 6 hours, centrifuged at 1000×g for 5 mins, washed three times with saline until the supernatant was colorless, while hemocytometer was used to count. The cell concentration was adjusted to 5*10^6/ml. The tail vein injection of 0.1 ml/10 g was carried out to cause a systemic fungal infection in mice. The mice were randomized into groups of 10 each. Voriconazole used was in the form of a suspension prepared with CMC-Na (Shanghai Panhong Chemical Technology Co., Ltd.), while other tested drugs were dissolved in saline and sonicated until clarified for administration. After establishing a systemic fungal infection model in mice for 2 hours, each group was administered by gavage with 5 mg/kg (calculated as voriconazole) drug, with the volume for administration of 0.1 ml/10 g. The mice in the model group were administered 0.1 ml/10 g of 0.9% sodium chloride solution, once daily, for 5 consecutive days. The death situation of the mice was inspected and the survival time was recorded. After a total of 7 days of observation, all dead mice were treated with fire using ethanol.

[6] = In vitro metabolic stability in human intestinal S9; assay type: in vitro ADME; conditions: 37°C, S9 1 mg/mL, compound 10 μM, NADPH regeneration system
Protocol: (§1) The two reaction systems were set up three samples in parallel, while each sample was taken in an amount of 100 μL at 1 min, 2 mins, 5 mins, 15 mins, and 30 mins after the reaction, added to the centrifuge tube containing 400 μL of 0° C. pre-cooled internal standard working fluid and terminated the reaction. The sample was mixed by vortex for 1 min, centrifuged at 10,000×g for 10 mins in a 4° C. pre-cooled high-speed centrifuge. The supernatant was taken for HPLC detection. […] Concentration of mother liquor of compounds: 1 mM […] [table]

[7] = In vitro metabolic stability in human plasma; assay type: in vitro ADME; conditions: 37°C, compound 10 μM
Protocol: The two reaction systems were set up three samples in parallel, while each sample was taken in an amount of 100 μL at 1 min, 2 mins, 5 mins, 15 mins, and 30 mins after the reaction, added to the centrifuge tube containing 400 μL of 0° C. pre-cooled internal standard working fluid and terminated the reaction. The sample was mixed by vortex for 1 min, centrifuged at 10,000×g for 10 mins in a 4° C. pre-cooled high-speed centrifuge. The supernatant was taken for HPLC detection.

[8] = In vitro metabolic stability in rat intestinal S9; assay type: in vitro ADME; conditions: 37°C, S9 1 mg/mL, compound 10 μM, NADPH regeneration system
Protocol: as §1

[9] = Pharmacokinetics after single intravenous administration in rats (plasma voriconazole); conditions: rat, in vivo, 2.5 mg/kg
Outline: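 SD rats (180–220 g, 3 male/3 female per group) given single tail-vein dose of 2.5 mg/kg (as voriconazole). Plasma voriconazole measured in blood sampled at multiple time points post-dose.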

Row | SMILES | Content increase of total impurity (25° C., placed for 30 days) [1] [%] | Solubility [2] [mg/mL] | Rat plasma T1/2 [3] [min] | AUClast [4] [µg·h/mL] | Cmax [4] [µg/mL] | T1/2 [4] [min] | survival rate of mice, day 1 [5] [%] | survival rate of mice, day 2 [5] [%] | survival rate of mice, day 3 [5] [%] | survival rate of mice, day 4 [5] [%] | survival rate of mice, day 5 [5] [%] | survival rate of mice, day 6 [5] [%] | survival rate of mice, day 7 [5] [%] | Human intestinal S9 T1/2 [6] [min] | Human plasma T1/2 [7] [min] | Rat intestinal S9 T1/2 [8] [min] | AUClast [9] [µg·h/mL] | T1/2 [9] [min]
1 | CC(OC(=O)N(C)c1ncccc1COC(=O)[C@@H](N)CCCN)[n+]1cnn(C[C@](O)(c2ccc(F)cc2F)[C@@H](C)c2ncncc2F)c1.Cl.Cl.Cl.[Br-] (stereo partly shown) [QR16008] | 1.05 | >50 | 10.58 ± 2.95 | 8.745 ± 2.365 | 0.825 ± 0.256 | 159 ± 34.8 | 100 | 100 | 100 | 100 | 90 | 80 | 80 | 30.25 ± 4.90 | 9.49 ± 1.31 | 32.52 ± 7.82 |  | 
2 | CC(OC(=O)N(C)c1ncccc1COC(=O)CN(C)C)[n+]1cnn(C[C@](O)(c2ccc(F)cc2F)[C@@H](C)c2ncncc2F)c1.Cl.Cl.[Cl-] (stereo partly shown) [QR16045] | 2.23 | >50 | 8.88 ± 0.55 | 7.859 ± 2.256 | 0.562 ± 0.158 | 155 ± 52.8 | 100 | 100 | 90 | 90 | 90 | 90 | 80 | 32.97 ± 8.45 | 8.95 ± 0.12 | 27.85 ± 6.58 | 8.586 ± 1.856 | 164 ± 46.8
